Measured values published in patent US9580409B2, “Modulators of opioid receptors and methods of use thereof” (priority 2011, dated 2017).
Read-outs that look alike come from different tables or passages of the source.

Biological target: mu-opioid receptor (Homo sapiens, UniProt P35372)
Assay: biochemical
Settings: read-out: GTP Activity
[1] = […], class symbol combines EC50 and efficacy

Sequence of mu-opioid receptor (P35372 whole entry, species assumed): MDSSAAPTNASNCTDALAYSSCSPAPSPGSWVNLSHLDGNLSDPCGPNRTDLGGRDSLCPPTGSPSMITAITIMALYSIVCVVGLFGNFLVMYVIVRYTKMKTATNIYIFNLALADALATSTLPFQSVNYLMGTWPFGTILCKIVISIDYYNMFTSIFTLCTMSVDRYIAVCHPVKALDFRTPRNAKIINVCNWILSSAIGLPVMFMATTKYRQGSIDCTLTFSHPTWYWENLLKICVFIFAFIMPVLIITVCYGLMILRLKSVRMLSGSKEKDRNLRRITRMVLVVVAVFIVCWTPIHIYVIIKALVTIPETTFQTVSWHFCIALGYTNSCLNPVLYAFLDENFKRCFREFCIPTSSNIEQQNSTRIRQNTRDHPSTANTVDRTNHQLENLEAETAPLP

Structure (SMILES) | EC50 (class symbols) [nM] | EC50 [1] [nM]
Cc1cc(C)cc(N2CC(=O)C(c3nc4c(C)cccc4[nH]3)=C2N)c1 [compound 14] | 1000 to 10000 | 
COc1cc(OC)cc(N2C(N)=C(c3nc4ccccc4[nH]3)C(=O)C2CCc2ccccc2)c1 (stereo not drawn) [compound 229] |  | 1000 to 10000
CNc1c(-c2nc3ccccc3[nH]2)c(=O)n(C)n1-c1cc(OC)cc(OC)c1 [compound 140] | < 100 | 
COc1cc(OC)cc(N2C(N)=C(c3nc4ccccc4[nH]3)C(=O)C23CNC3)c1 [compound 189] | 1000 to 10000 | 
COc1cc(OC)cc(N2C(N)=C(c3nc4ccccc4[nH]3)C(=O)C2(C)CO)c1 (stereo not drawn) [compound 133] | 100 to 1000 | 
CC[C@@]1(C)C(=O)C(c2nc3ccccc3[nH]2)=C(N)N1c1cc(OC)cc(OC)c1 [compound 85] | 100 to 1000 | 
COc1cc(OC)cc(N2C(N)=C(c3nc4ccccc4[nH]3)C(=O)C2CCCO)c1 (stereo not drawn) [compound 221] |  | 100 to 1000
COCCC1C(=O)C(c2nc3ccccc3[nH]2)=C(N)N1c1cc(OC)cc(OC)c1 (stereo not drawn) [compound 69] | 100 to 1000 | 
C=C1C(=O)C(c2nc3ccccc3[nH]2)=C(N)N1c1cc(OC)cc(OC)c1 [compound 177] | 100 to 1000 | 
CNC1=C(c2nc3ccccc3[nH]2)C(=O)C2(CCCN(C(C)=O)C2)N1c1cc(OC)cc(OC)c1 (stereo not drawn) [compound 273] |  | 100 to 1000
COc1cc(OC)cc(N2C(N)=C(c3nc4ccccc4[nH]3)C(=O)C2CC(=O)O)c1 (stereo not drawn) [compound 244] |  | 1000 to 10000
COc1cc(OC)cc(N2C(N)=C(c3nc4ccccc4[nH]3)C(=O)[C@@H]2c2ccccc2)c1 [compound 106] | 1000 to 10000 | 
CNC1=C(c2nc3ccccc3[nH]2)C(=O)C(C)(CC(C)O)N1c1cc(OC)cc(OC)c1 (stereo not drawn) [compound 309] |  | < 100
CNC1=C(c2nc3ccccc3[nH]2)C(=O)C2(CC(O)C2)N1c1cc(OC)cc(OC)c1 (stereo not drawn) [compound 259] |  | < 100
COc1ccc(OC)c(N2C(N)=C(c3nc4ccccc4[nH]3)C(=O)C2(C)C)c1 [compound 165] | 1000 to 10000 | 
CCc1cc(OC)cc(N2C(N)=C(c3nc4ccccc4[nH]3)C(=O)C2(C)C)c1 [compound 155] | 100 to 1000 | 
COc1cc(OC)cc(N2CC(=O)C(c3cn4ccccc4n3)=C2N)c1 [compound 41] | 1000 to 10000 | 
COc1cc(OC)cc(N2C(N)=C(c3nc4ccccc4[nH]3)C(=O)C23COC3)c1 [compound 191] | 100 to 1000 | 

Structure (SMILES) | EC50 (class symbols) [nM] | EC50 [1] [nM]
CCC1(C)C(=O)C(c2nc3ccccc3[nH]2)=C(N)N1c1cc(OC)cc(OC)c1 (stereo not drawn) [compound 53] | 100 to 1000 | 
CCc1cc(CC)cc(N2C(N)=C(c3nc4ccccc4[nH]3)C(=O)C2(C)C)c1 [compound 156] | 100 to 1000 | 
Cc1ccc(N2C(N)=C(c3nc4ccccc4[nH]3)C(=O)C2(C)C)c(C)c1 [compound 101] | 100 to 1000 | 
CN(C)c1cccc(N2C(N)=C(c3nc4ccccc4[nH]3)C(=O)C2(C)C)c1 [compound 164] | 1000 to 10000 | 
[2H]C([2H])([2H])Oc1cc(OC([2H])([2H])[2H])cc(N2C(NC)=C(c3nc4ccccc4[nH]3)C(=O)C2(C)C)c1 [compound 175] | < 100 | 
CNC1=C(c2nc3ccccc3[nH]2)C(=O)C(CNC(=O)COC)N1c1cc(OC)cc(OC)c1 (stereo not drawn) [compound 289] |  | < 100
COc1cc(OC)cc(N2C(N)=C(c3nc4ccccc4[nH]3)C(=O)C2(C)O)c1 (stereo not drawn) [compound 112] | 100 to 1000 | 
COc1cc(OC)cc(-n2nc(Nc3ccccc3)c(-c3nc4ccccc4[nH]3)c2O)c1 [compound 197] | 1000 to 10000 | 
COc1cc(OC)cc(N2C(N)=C(c3nc4ccccc4[nH]3)C(=O)C2CCN2CCCC2)c1 (stereo not drawn) [compound 237] |  | 1000 to 10000
CNc1c(-c2nc3ccccc3[nH]2)c(=O)n(CCCO)n1-c1cc(OC)cc(OC)c1 [compound 267] |  | < 100
COc1cc(OC)cc(N2C(N)=C(c3nc4ccccc4[nH]3)C(=O)C2CCCCN)c1 (stereo not drawn) [compound 204] |  | 100 to 1000
CNC(=O)CC1C(=O)C(c2nc3ccccc3[nH]2)=C(N)N1c1cc(OC)cc(OC)c1 (stereo not drawn) [compound 246] |  | 1000 to 10000
CNC1=C(c2nc3ccccc3[nH]2)C(=O)C(CO)(CCl)N1c1cc(OC)cc(OC)c1 (stereo not drawn) [compound 264] |  | 100 to 1000
COc1cc(OC)cc(N2C(N)=C(c3nc4ccccc4[nH]3)C(=O)[C@]23C[C@H](O)C3)c1 [compound 258] |  | 100 to 1000
CNC1=C(c2nc3ccccc3[nH]2)C(=O)C2(CC(=O)C2)N1c1cc(OC)cc(OC)c1 [compound 275] |  | < 100
COc1cc(OC)cc(N2C(N)=C(c3nc4ccccc4[nH]3)C(=O)C23CCNC3)c1 (stereo not drawn) [compound 182] | 100 to 1000 | 
COc1ccc(OC)c(N2CC(=O)C(c3nc4c(C)cccc4[nH]3)=C2N)c1 [compound 16] | 1000 to 10000 | 
COc1cc(OC)cc(N2C(N)=C(c3nc4ccccc4[nH]3)C(=O)C2CCN)c1 (stereo not drawn) [compound 238] |  | 1000 to 10000
